ChEMBL document CHEMBL1144945, “Development of progesterone receptor antagonists from 1,2-dihydrochromeno[3,4-f]quinoline agonist pharmacophore” (Bioorg Med Chem Lett, 2003)
Activity calls are given as the source filed them.

How the values were obtained:
Progesterone receptor [1] = molecular target: T1, Progesterone receptor (Homo sapiens, UniProt P06401)
T1 sequence (P06401 whole entry): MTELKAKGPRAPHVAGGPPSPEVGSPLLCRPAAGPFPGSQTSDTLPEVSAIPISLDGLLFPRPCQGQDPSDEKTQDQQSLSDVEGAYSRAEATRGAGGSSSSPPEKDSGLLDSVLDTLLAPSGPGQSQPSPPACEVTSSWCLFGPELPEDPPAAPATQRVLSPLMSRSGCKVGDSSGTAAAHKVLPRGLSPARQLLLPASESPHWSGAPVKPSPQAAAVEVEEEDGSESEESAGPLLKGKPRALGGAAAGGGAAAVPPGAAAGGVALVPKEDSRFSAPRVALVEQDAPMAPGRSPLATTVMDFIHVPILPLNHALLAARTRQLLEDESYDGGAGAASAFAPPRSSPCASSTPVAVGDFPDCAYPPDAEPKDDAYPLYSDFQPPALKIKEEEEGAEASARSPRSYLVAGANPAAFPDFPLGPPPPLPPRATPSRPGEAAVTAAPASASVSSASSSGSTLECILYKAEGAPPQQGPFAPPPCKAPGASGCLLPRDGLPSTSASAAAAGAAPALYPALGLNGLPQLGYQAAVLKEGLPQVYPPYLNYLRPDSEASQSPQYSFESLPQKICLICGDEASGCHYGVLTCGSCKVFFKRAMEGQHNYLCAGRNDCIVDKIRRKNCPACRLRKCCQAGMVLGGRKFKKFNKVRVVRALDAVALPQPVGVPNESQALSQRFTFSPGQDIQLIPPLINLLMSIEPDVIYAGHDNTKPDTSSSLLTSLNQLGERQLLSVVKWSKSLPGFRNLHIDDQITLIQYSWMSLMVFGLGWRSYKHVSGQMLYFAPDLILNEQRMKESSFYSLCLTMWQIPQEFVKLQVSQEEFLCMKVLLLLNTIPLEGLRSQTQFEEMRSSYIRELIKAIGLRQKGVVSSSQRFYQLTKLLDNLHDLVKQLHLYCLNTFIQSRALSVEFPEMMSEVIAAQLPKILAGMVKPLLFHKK
Description: Antagonistic activity at human progesterone receptor in CV-1 cells.

[2] = molecular target: T2, Mineralocorticoid receptor (Homo sapiens, UniProt P08235); experiment: Inhibition of antagonist activity towards mineralocorticoid receptor (hMR); Not active; assay type: functional
T2 sequence (P08235 whole entry): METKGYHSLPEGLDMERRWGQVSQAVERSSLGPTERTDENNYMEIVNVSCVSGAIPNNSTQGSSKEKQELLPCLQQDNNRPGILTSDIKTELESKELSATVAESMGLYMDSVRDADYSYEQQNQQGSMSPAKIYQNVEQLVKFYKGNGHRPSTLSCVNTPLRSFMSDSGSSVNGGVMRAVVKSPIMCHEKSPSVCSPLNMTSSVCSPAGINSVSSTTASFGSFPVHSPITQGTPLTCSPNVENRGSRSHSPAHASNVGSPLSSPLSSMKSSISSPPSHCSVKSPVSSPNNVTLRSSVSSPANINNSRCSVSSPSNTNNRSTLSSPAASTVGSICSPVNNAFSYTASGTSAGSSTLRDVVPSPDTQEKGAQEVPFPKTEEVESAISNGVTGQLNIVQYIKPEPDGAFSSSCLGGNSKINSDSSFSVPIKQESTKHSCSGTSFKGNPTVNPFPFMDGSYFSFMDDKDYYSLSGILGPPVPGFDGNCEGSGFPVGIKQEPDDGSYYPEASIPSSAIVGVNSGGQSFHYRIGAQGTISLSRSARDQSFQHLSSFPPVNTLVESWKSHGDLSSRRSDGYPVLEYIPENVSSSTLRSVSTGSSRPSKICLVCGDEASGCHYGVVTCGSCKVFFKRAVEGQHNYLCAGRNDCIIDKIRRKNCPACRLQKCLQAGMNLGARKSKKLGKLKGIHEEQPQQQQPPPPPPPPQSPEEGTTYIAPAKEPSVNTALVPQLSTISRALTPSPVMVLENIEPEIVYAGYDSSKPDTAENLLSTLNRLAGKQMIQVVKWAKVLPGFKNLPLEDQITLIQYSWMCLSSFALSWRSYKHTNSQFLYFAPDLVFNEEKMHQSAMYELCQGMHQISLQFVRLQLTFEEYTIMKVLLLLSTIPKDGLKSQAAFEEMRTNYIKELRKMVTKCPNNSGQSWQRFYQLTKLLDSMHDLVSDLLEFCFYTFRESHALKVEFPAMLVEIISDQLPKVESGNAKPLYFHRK

[3] = molecular target: Estrogen receptor (Homo sapiens) (UniProt Q92731+P03372); experiment: Antagonist efficacy for Estrogen receptor; Not active; assay type: functional
[4] = molecular target: T3, Progesterone receptor (Homo sapiens) (UniProt P06401); experiment: Agonist efficacy for human progesterone receptor in T47D human breast cancer cell; not active (<20% efficacy and/or >10 mM potency); assay type: functional, cell-based
T3 sequence (whole entry): T1 sequence (P06401 whole entry)

Progesterone receptor [5] = molecular target: T1, Progesterone receptor; remark: listed apart in the source
Description: Inhibition of human progesterone receptor activation in T47D human breast cancer cell.

Progesterone receptor [6] = molecular target: T1, Progesterone receptor; remark: listed apart in the source
Description: Binding affinity at human progesterone receptor.

[7] = molecular target: T4, Mineralocorticoid receptor (Homo sapiens) (UniProt P08235); experiment: Antagonist efficacy for mineralocorticoid receptor (hMR); Not active; assay type: functional
T4 sequence (whole entry): T2 sequence (P08235 whole entry)

Progesterone receptor [8] = molecular target: T1, Progesterone receptor; experiment: Effective concentration for human progesterone receptor in T47D human breast cancer cell; not active (<20% efficacy and/or >10 mM potency); details: cancer cell lines
Glucocorticoid receptor = molecular target: T5, Glucocorticoid receptor (Homo sapiens, UniProt P04150); experiment: Inhibition of antagonist activity towards glucocorticoid (hGR) receptor; assay type: functional
T5 sequence (P04150 whole entry): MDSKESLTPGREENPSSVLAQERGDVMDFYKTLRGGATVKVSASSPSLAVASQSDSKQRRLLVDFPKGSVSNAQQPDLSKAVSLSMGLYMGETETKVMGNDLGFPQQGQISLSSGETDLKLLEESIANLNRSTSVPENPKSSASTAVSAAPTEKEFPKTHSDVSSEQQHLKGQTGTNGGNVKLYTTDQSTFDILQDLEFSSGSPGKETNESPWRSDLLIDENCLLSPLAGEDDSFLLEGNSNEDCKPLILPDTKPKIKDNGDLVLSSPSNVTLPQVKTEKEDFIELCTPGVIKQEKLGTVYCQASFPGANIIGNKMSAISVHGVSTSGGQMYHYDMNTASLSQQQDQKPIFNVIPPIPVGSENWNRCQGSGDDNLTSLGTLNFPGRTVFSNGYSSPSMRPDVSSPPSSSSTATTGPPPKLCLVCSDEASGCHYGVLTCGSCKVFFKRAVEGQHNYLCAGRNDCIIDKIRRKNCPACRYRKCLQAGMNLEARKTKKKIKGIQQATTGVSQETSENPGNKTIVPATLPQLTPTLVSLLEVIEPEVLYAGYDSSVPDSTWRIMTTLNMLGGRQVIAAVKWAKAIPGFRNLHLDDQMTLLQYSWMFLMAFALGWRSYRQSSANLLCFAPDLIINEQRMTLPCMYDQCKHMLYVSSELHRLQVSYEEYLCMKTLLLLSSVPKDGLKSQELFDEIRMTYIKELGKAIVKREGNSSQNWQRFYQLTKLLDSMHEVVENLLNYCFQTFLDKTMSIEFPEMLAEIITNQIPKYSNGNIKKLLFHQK

EC50 (Progesterone receptor [1]) [nM] | IC50 [2] | Efficacy [3] | Efficacy [4] | IC50 (Progesterone receptor [5]) [nM] | Ki (Progesterone receptor [6]) [nM] | Efficacy [7] | EC50 (Progesterone receptor [8]) | IC50 (Glucocorticoid receptor) [nM] | SMILES | IC50 ([2]; read-out: IC50)
40 | Not Active | inactive | inactive | 217 | 45 | inactive | Not Active |  | CC1CC(C)(C)Nc2ccc3c(c21)COc1c(F)cc(F)cc1-3 (stereo not given) | 
 | Not Active |  |  |  |  | inactive |  | 3030 | CC1=CC(C)(C)Nc2ccc3c(c21)COc1c(F)cc(F)cc1-3 | 
57 | Not Active | inactive | inactive | 461 | 12.4 | inactive | Not Active |  | CC1=CC(C)(C)Nc2ccc3c(c21)COc1c(F)cc(Br)cc1-3 | 
 | Not Active |  |  |  |  | inactive |  | 753 | CC1=CC(C)(C)Nc2ccc3c(c21)COc1c(F)cc(Cl)cc1-3 | 

SMILES | EC50 (Progesterone receptor [1]) [nM] | IC50 [2] | Efficacy [3] | Efficacy [4] | IC50 (Progesterone receptor [5]) [nM] | Ki (Progesterone receptor [6]) [nM] | Efficacy [7] | EC50 (Progesterone receptor [8]) | IC50 (Glucocorticoid receptor) [nM] | IC50 ([2]; read-out: IC50)
CC1CC(C)(C)Nc2ccc3c(c21)COc1ccc([N+](=O)[O-])cc1-3 (stereo not given) | 52 |  | inactive | inactive | 104 | 144 | 58% | Not Active |  | 2870 nM (not active)
